These results are taken from the supplement of paper PMC10307832.

Assay in all cases: relative viability (nuclei count vs DMSO), 5 days (fraction); higher = more cells survive
Compound in the test “GW-2580 + Palbociclib”: COC1=CC=C(C=C1)COC2=C(C=C(C=C2)CC3=CN=C(N=C3N)N)OC [GW-2580] + CC(=O)c1c(C)c2cnc(Nc3ccc(N4CCNCC4)cn3)nc2n(C2CCCC2)c1=O [Palbociclib] (partner 0.5 µM)
The method in brief:
(§1)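 Relative viability equals treated-well nuclei counts divided by vehicle-well nuclei counts. Counts came from 4× images of lung cancer cell lines grown in 1536-well plates for 5 days after pin-tool dosing on the day after seeding. Dosing used one drug alone or a fixed anchor-drug dose plus five library-drug doses (not always all listed) in √10 steps, and values are medians of duplicate plates.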

Compound in the test “Fedratinib + Pemetrexed”: Cc1cnc(Nc2ccc(OCCN3CCCC3)cc2)nc1Nc1cccc(S(=O)(=O)NC(C)(C)C)c1 [Fedratinib] + Nc1nc2[nH]cc(CCc3ccc(C(=O)N[C@@H](CCC(=O)O)C(=O)O)cc3)c2c(=O)[nH]1 [Pemetrexed] (partner 0.2 µM)
The method in brief:
as §1

Compound in the test “GW-2580 + Bortezomib”: COC1=CC=C(C=C1)COC2=C(C=C(C=C2)CC3=CN=C(N=C3N)N)OC [GW-2580] + CC(C)C[C@H](NC(=O)[C@H](Cc1ccccc1)NC(=O)c1cnccn1)B(O)O [Bortezomib] (partner 0.002 µM)
The procedure, abridged:
as §1

Compound in the test “GW-2580 + Crizotinib”: COC1=CC=C(C=C1)COC2=C(C=C(C=C2)CC3=CN=C(N=C3N)N)OC [GW-2580] + C[C@@H](Oc1cc(-c2cnn(C3CCNCC3)c2)cnc1N)c1c(Cl)ccc(F)c1Cl [Crizotinib] (partner 1 µM)
The method in brief:
as §1

Compound in the test “Fedratinib + Pictilisib”: Cc1cnc(Nc2ccc(OCCN3CCCC3)cc2)nc1Nc1cccc(S(=O)(=O)NC(C)(C)C)c1 [Fedratinib] + CS(=O)(=O)N1CCN(Cc2cc3nc(-c4cccc5[nH]ncc45)nc(N4CCOCC4)c3s2)CC1 [Pictilisib] (partner 1 µM)
The method in brief:
as §1

For the cell line EMC-BAC-2, the relative viability in the test with GW-2580 + Palbociclib (first compound 0.08 µM) amounted to 0.536; with GW-2580 + Palbociclib (first compound 0.8 µM), 0.545; in the test with GW-2580 + Palbociclib (first compound 8 µM) it was 0.493; with Fedratinib + Pemetrexed (first compound 0.1 µM), 0.425; with Fedratinib + Pemetrexed (first compound 0.3162 µM) it was 0.481; with Fedratinib + Pemetrexed (first compound 1 µM), 0.39. In addition, the relative viability amounted to 1.11 in the test with GW-2580 + Bortezomib (first compound 0.08 µM); 1.16 with GW-2580 + Bortezomib (first compound 0.8 µM); 1.02 with GW-2580 + Bortezomib (first compound 2.53 µM); 1.05 in the test with GW-2580 + Bortezomib (first compound 8 µM); 0.779 with GW-2580 + Crizotinib (first compound 0.08 µM); 0.771 in the test with GW-2580 + Crizotinib (first compound 0.8 µM). In addition, the relative viability with GW-2580 + Crizotinib (first compound 2.53 µM) worked out at 0.75; with GW-2580 + Crizotinib (first compound 8 µM), 0.803; with Fedratinib + Pictilisib (first compound 0.1 µM) it was 0.499; with Fedratinib + Pictilisib (first compound 0.3162 µM), 0.575; in the test with Fedratinib + Pictilisib (first compound 1 µM) it was 0.538.

LK-2: the relative viability with GW-2580 + Palbociclib (first compound 0.08 µM) is 0.877; with GW-2580 + Palbociclib (first compound 0.8 µM) it was 0.853; with GW-2580 + Palbociclib (first compound 2.53 µM), 0.426; in the test with GW-2580 + Palbociclib (first compound 8 µM) it was 0.614; with Fedratinib + Pemetrexed (first compound 0.1 µM), 0.171; with Fedratinib + Pemetrexed (first compound 0.3162 µM), 0.207. Further, the relative viability amounted to 0.233 with Fedratinib + Pemetrexed (first compound 1 µM); 0.22 with GW-2580 + Crizotinib (first compound 0.08 µM); 0.247 with GW-2580 + Crizotinib (first compound 0.8 µM); 0.218 with GW-2580 + Crizotinib (first compound 2.53 µM); 0.208 with GW-2580 + Crizotinib (first compound 8 µM); 0.563 in the test with Fedratinib + Pictilisib (first compound 0.3162 µM). Besides, the relative viability in the test with Fedratinib + Pictilisib (first compound 1 µM) turned out to be 0.399.

Take NCI-H2126: the relative viability in the test with GW-2580 + Palbociclib (first compound 0.08 µM) amounted to 0.352; with GW-2580 + Palbociclib (first compound 0.8 µM), 0.365; with GW-2580 + Palbociclib (first compound 2.53 µM) it was 0.335; in the test with GW-2580 + Palbociclib (first compound 8 µM) it was 0.356; in the test with Fedratinib + Pemetrexed (first compound 0.1 µM), 0.592; in the test with Fedratinib + Pemetrexed (first compound 0.3162 µM), 0.657. Moreover, the relative viability stood at 0.626 with Fedratinib + Pemetrexed (first compound 1 µM); 1.14 with GW-2580 + Bortezomib (first compound 0.08 µM); 1.24 in the test with GW-2580 + Bortezomib (first compound 0.8 µM); 1.03 with GW-2580 + Bortezomib (first compound 2.53 µM); 1.14 in the test with GW-2580 + Bortezomib (first compound 8 µM); 1.06 in the test with GW-2580 + Crizotinib (first compound 0.08 µM). Moreover, the relative viability with GW-2580 + Crizotinib (first compound 0.8 µM) turned out to be 1.06; with GW-2580 + Crizotinib (first compound 2.53 µM) it was 1.01; in the test with GW-2580 + Crizotinib (first compound 8 µM), 1.04; in the test with Fedratinib + Pictilisib (first compound 0.1 µM), 0.489; with Fedratinib + Pictilisib (first compound 0.3162 µM), 0.514; in the test with Fedratinib + Pictilisib (first compound 1 µM), 0.391.

In the case of NCI-H3122, the relative viability with GW-2580 + Palbociclib (first compound 0.08 µM) worked out at 0.207; with GW-2580 + Palbociclib (first compound 0.8 µM), 0.199; with GW-2580 + Palbociclib (first compound 2.53 µM), 0.189; with GW-2580 + Palbociclib (first compound 8 µM), 0.195; in the test with Fedratinib + Pemetrexed (first compound 0.1 µM), 0.186; with Fedratinib + Pemetrexed (first compound 0.3162 µM) it was 0.189. In addition, the relative viability with Fedratinib + Pemetrexed (first compound 1 µM) came to 0.197; with GW-2580 + Bortezomib (first compound 0.08 µM), 1.04; in the test with GW-2580 + Bortezomib (first compound 0.8 µM), 0.939; with GW-2580 + Bortezomib (first compound 2.53 µM) it was 1.1; with GW-2580 + Bortezomib (first compound 8 µM), 1.11; with GW-2580 + Crizotinib (first compound 0.08 µM), 0.286. Further, the relative viability in the test with GW-2580 + Crizotinib (first compound 0.8 µM) was found to be 0.309; with GW-2580 + Crizotinib (first compound 2.53 µM), 0.247; in the test with GW-2580 + Crizotinib (first compound 8 µM) it was 0.238; with Fedratinib + Pictilisib (first compound 0.1 µM), 0.621; with Fedratinib + Pictilisib (first compound 0.3162 µM), 0.551; with Fedratinib + Pictilisib (first compound 1 µM) it was 0.152.

Turning to NCI-H1975, the relative viability stood at 0.738 with GW-2580 + Palbociclib (first compound 0.08 µM); 0.944 with GW-2580 + Palbociclib (first compound 0.8 µM); 0.524 with GW-2580 + Palbociclib (first compound 2.53 µM); 0.586 in the test with GW-2580 + Palbociclib (first compound 8 µM); 0.29 in the test with Fedratinib + Pemetrexed (first compound 0.1 µM); 0.306 with Fedratinib + Pemetrexed (first compound 0.3162 µM). The relative viability with Fedratinib + Pemetrexed (first compound 1 µM) was found to be 0.272; in the test with GW-2580 + Bortezomib (first compound 0.08 µM), 0.373; with GW-2580 + Bortezomib (first compound 0.8 µM), 0.368; with GW-2580 + Bortezomib (first compound 2.53 µM) it was 0.317; with GW-2580 + Bortezomib (first compound 8 µM), 0.366; with GW-2580 + Crizotinib (first compound 0.08 µM) it was 1. In addition, the relative viability with GW-2580 + Crizotinib (first compound 0.8 µM) is 1.12; with GW-2580 + Crizotinib (first compound 2.53 µM), 0.926; with GW-2580 + Crizotinib (first compound 8 µM), 0.796; in the test with Fedratinib + Pictilisib (first compound 0.1 µM) it was 0.301; with Fedratinib + Pictilisib (first compound 0.3162 µM), 0.315; in the test with Fedratinib + Pictilisib (first compound 1 µM), 0.15.

Take NCI-H1944: the relative viability amounted to 0.33 with GW-2580 + Palbociclib (first compound 0.08 µM); 0.387 in the test with GW-2580 + Palbociclib (first compound 0.8 µM); 0.29 with GW-2580 + Palbociclib (first compound 2.53 µM); 0.255 in the test with GW-2580 + Palbociclib (first compound 8 µM); 0.665 with Fedratinib + Pemetrexed (first compound 0.1 µM); 0.643 with Fedratinib + Pemetrexed (first compound 0.3162 µM). Further, the relative viability in the test with Fedratinib + Pemetrexed (first compound 1 µM) stood at 0.624; with GW-2580 + Crizotinib (first compound 0.08 µM), 1.21; in the test with GW-2580 + Crizotinib (first compound 0.8 µM) it was 1.01; with GW-2580 + Crizotinib (first compound 2.53 µM), 1.4; with GW-2580 + Crizotinib (first compound 8 µM) it was 1.03; with Fedratinib + Pictilisib (first compound 0.1 µM) it was 0.333. The values for the relative viability in the test with Fedratinib + Pictilisib (first compound 0.3162 µM) and with Fedratinib + Pictilisib (first compound 1 µM) were 0.344 and 0.302, respectively.

For NCI-H1299, the relative viability turned out to be 1.02 with GW-2580 + Bortezomib (first compound 0.08 µM); 0.949 with GW-2580 + Bortezomib (first compound 0.8 µM); 1.07 with GW-2580 + Bortezomib (first compound 2.53 µM); 0.941 in the test with GW-2580 + Bortezomib (first compound 8 µM); 0.974 with GW-2580 + Crizotinib (first compound 0.08 µM); 0.984 with GW-2580 + Crizotinib (first compound 0.8 µM). Besides, the relative viability is 0.972 with GW-2580 + Crizotinib (first compound 2.53 µM); 0.892 in the test with GW-2580 + Crizotinib (first compound 8 µM); 0.629 with Fedratinib + Pictilisib (first compound 0.1 µM); 0.688 with Fedratinib + Pictilisib (first compound 0.3162 µM); 0.529 with Fedratinib + Pictilisib (first compound 1 µM).

As to NCI-H727, the relative viability with GW-2580 + Palbociclib (first compound 0.08 µM) is 0.576; with GW-2580 + Palbociclib (first compound 0.8 µM) it was 0.625; in the test with GW-2580 + Palbociclib (first compound 2.53 µM), 0.606; with GW-2580 + Palbociclib (first compound 8 µM), 0.54; with GW-2580 + Bortezomib (first compound 0.08 µM), 1.01; in the test with GW-2580 + Bortezomib (first compound 0.8 µM) it was 1.18. Moreover, the relative viability worked out at 1.35 with GW-2580 + Bortezomib (first compound 2.53 µM); 0.835 with GW-2580 + Bortezomib (first compound 8 µM); 0.85 with GW-2580 + Crizotinib (first compound 0.08 µM); 0.819 in the test with GW-2580 + Crizotinib (first compound 0.8 µM); 0.79 with GW-2580 + Crizotinib (first compound 2.53 µM); 0.5 with GW-2580 + Crizotinib (first compound 8 µM). Also, the relative viability came out at 0.378 with Fedratinib + Pictilisib (first compound 0.1 µM), 0.317 with Fedratinib + Pictilisib (first compound 0.3162 µM) and 0.164 with Fedratinib + Pictilisib (first compound 1 µM).

As to ABC-1, the relative viability worked out at 0.74 with GW-2580 + Palbociclib (first compound 0.08 µM); 0.768 with GW-2580 + Palbociclib (first compound 0.8 µM); 0.503 in the test with GW-2580 + Palbociclib (first compound 2.53 µM); 0.696 with GW-2580 + Palbociclib (first compound 8 µM); 0.295 with GW-2580 + Bortezomib (first compound 0.08 µM); 0.324 with GW-2580 + Bortezomib (first compound 0.8 µM). Also, the relative viability with GW-2580 + Bortezomib (first compound 2.53 µM) was found to be 0.287; with GW-2580 + Bortezomib (first compound 8 µM), 0.306; in the test with GW-2580 + Crizotinib (first compound 0.08 µM), 1.1; with GW-2580 + Crizotinib (first compound 0.8 µM), 1.3; with GW-2580 + Crizotinib (first compound 2.53 µM), 0.901; with GW-2580 + Crizotinib (first compound 8 µM) it was 0.783. Besides, the relative viability with Fedratinib + Pictilisib (first compound 0.1 µM) stood at 0.694; with Fedratinib + Pictilisib (first compound 0.3162 µM), 0.809; with Fedratinib + Pictilisib (first compound 1 µM), 0.318.
